Assay results: US9034886B2, “4-aminoquinazoline derivatives and uses thereof” (Shanghai Institute of Pharmaceutical Industry, priority 2011, dated 2015)
Like-named read-outs stand apart in the source and are kept apart here.

Tests used:
HDAC1 = HDAC1 (Homo sapiens (Human), UniProt Q13547); experiment: In vitro inhibition of subtype HDAC1 (HDAC1 Inhibitor Drug Screening Kit, Biovision); format: biochemical; conditions: read-out: % Inhibition towards HDAC1
Method: The in vitro inhibitory activities of the compounds towards the subtype HDAC1 were tested according to the instructions in the HDAC1 Inhibitor Drug Screening Kit (Biovision).
(1) The compounds to be tested were each individually prepared as 10 μM and 1 μM solutions and their inhibitory activities at these concentrations were tested.
Each dilution sample was placed in two wells and the enzyme inhibition IC50 of the compound was tested.

[1] = tested on: PC-3 human prostate cancer; experiment: In vitro anti-proliferative effect, CCK-8 method, PC-3; format: cell-based; conditions: Homo sapiens
How it was run: (§1)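 Cells exposed to compound at 10 μM or 100 μM; CCK-8 assay then used to derive inhibition percentages.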

hERG potassium channel = hERG potassium channel (Homo sapiens (Human), UniProt Q12809); experiment: Effects on hERG potassium channel; format: cell-based
[2] = tested on: MDA-MB-435s human breast cancer cells; experiment: In vitro anti-proliferative effect, CCK-8 method, MDA-MB-435s; format: cell-based; conditions: Homo sapiens, MDA-MB-435S
How it was run: as §1

[3] = tested on: Hep3B2.1-7 human liver cancer cells; experiment: In vitro anti-proliferative effect, CCK-8 method, Hep3B; format: cell-based; conditions: Homo sapiens
How it was run: as §1

[4] = Maximum tolerance dose through intragastrical administration; format: in vivo; conditions: mice, administrated intragastrically
How it was run: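 ICR mice (8˜20 g, both sexes, 10 per group) fasted 6 h, then dosed once intragastrically at 0.3 ml/10 g. Physical signs and deaths recorded at 1, 2 and 4 h, then daily with body weight over 14 days; dead animals necropsied with pathology on suspicious organs.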

[5] = tested on: PANC-1 human pancreatic cancer cells; experiment: In vitro anti-proliferative effect, CCK-8 method, PANC-1; format: cell-based; conditions: Homo sapiens, PANC-1
How it was run: as §1

[6] = tested on: K562 human chronic myelogenous leukemia cells; experiment: In vitro anti-proliferative effect, CCK-8 method, K562; format: cell-based; conditions: Homo sapiens, K562
How it was run: (§2)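 K562 and Hut78 cells exposed to compounds at 100 μM and 10 μM. Percent inhibition of proliferation determined by CCK-8 read-out.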

HDACs = experiment: In vitro inhibition of HDACs (HDAC Inhibitor Drug Screening Kit, Biovision K340-100); format: biochemical
Method: The in vitro inhibitory activities of the compounds towards HDACs were tested according to the instructions in the HDAC Inhibitor Drug Screening Kit (Biovision/Catalog #K340-100).
(1) The compounds to be tested were each individually prepared as 2 mM, 200 μM and 40 μM solutions and their inhibitory activities at these concentrations were tested.

[7] = tested on: Hut78 T lymphocytic leukemia cells; experiment: In vitro anti-proliferative effect, CCK-8 method, Hut78; format: cell-based; conditions: Homo sapiens, HuT78
How it was run: as §2

[8] = Preliminary pharmacokinetics; conditions: in vivo, rat
human PC-3 tumors = experiment: Human PC-3 tumors transplanted in nude mice; format: in vivo; conditions: 50 mg/kg
[9] = tested on: Jurkat E6-1 human T-cell lymphoma; experiment: In vitro anti-proliferative effect, CCK-8 method, Jurkat E6-1; format: cell-based; conditions: Homo sapiens, Jurkat E6.1
How it was run: as §1

[10] = tested on: A549 human lung cancer cells; experiment: In vitro anti-proliferative effect, CCK-8 method, A549; format: cell-based; conditions: Homo sapiens, A549
How it was run: as §1

[11] = tested on: Colo320 human colorectal cancer cell lines; experiment: In vitro anti-proliferative effect, CCK-8 method, Colo320; format: cell-based; conditions: Homo sapiens, COLO 320
How it was run: as §1

hERG potassium channel, sequence (Q12809 whole entry): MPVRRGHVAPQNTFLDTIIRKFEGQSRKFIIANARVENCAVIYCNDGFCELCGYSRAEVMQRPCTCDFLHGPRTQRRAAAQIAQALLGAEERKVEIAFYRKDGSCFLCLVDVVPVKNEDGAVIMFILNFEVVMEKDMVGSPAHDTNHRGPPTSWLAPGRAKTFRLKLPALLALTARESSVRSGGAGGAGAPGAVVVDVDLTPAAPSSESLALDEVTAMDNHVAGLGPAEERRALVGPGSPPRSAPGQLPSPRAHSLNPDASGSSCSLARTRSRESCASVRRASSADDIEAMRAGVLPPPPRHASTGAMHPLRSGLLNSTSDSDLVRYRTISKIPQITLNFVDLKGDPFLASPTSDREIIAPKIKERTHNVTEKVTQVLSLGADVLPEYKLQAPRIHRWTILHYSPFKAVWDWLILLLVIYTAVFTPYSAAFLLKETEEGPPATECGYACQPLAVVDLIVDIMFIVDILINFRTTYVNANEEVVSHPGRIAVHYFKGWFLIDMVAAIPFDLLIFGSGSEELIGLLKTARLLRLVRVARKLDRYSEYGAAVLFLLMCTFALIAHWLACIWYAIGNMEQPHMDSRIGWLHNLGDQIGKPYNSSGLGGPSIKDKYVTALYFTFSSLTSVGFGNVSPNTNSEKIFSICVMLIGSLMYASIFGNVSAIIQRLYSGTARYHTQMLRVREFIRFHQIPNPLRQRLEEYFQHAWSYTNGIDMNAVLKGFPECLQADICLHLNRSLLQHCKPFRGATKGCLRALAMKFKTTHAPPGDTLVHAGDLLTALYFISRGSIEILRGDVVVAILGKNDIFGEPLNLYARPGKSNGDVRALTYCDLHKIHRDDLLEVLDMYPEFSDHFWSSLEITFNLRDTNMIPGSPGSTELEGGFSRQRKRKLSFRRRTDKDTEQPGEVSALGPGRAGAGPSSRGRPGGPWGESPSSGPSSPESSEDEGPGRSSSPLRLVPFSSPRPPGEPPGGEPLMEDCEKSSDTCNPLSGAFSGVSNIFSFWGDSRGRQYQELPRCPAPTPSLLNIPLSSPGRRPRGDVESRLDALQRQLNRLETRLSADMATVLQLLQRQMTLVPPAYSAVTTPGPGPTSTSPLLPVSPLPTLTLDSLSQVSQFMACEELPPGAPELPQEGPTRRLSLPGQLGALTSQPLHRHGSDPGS
HDAC1, sequence (Q13547 whole entry): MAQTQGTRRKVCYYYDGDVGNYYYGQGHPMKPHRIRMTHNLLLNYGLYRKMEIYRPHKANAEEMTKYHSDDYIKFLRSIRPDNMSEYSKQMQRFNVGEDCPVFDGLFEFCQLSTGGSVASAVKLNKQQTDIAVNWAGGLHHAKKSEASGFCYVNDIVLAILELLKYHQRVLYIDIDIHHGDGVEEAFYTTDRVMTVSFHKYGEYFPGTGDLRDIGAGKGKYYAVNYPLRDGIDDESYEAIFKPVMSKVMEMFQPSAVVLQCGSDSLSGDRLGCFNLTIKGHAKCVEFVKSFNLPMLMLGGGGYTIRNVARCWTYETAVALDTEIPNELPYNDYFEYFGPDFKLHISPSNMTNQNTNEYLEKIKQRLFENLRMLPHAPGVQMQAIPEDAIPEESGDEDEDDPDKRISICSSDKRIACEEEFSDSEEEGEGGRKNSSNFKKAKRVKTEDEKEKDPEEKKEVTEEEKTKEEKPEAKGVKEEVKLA

What does the source list for `COc1cccc2c(Nc3ccc(C(=O)Nc4ccccc4N)cc3)ncnc12` [Compound V-9, N-(2-aminophenyl)-4-(8-methoxy-quinazoline-4-amino)benzamide]?
inhibition at 1 µM (HDAC1; 1 μM): 33.8%; inhibition at 10 µM (HDAC1; 10 μM): 58.3%; IC50 [1]: 12.2 µM; inhibition at 10 µM ([1]; PC-3 cell strain, compound at 10 μM, CCK-8 method): 5.1%; inhibition at 100 µM ([1]; PC-3 cell strain, compound at 100 μM, CCK-8 method): 19.3%; inhibition at 10 µM (hERG potassium channel; human, hERG potassium current, 10 μM, read-out: Maximum inhibition percentage at 10 μM (%)): 21.5 ± 0.4%; IC50 (hERG potassium channel; read-out: Half inhibition concentration for the effect on hERG potassium current, IC50): > 10 µM; inhibition at 10 µM ([2]; 10 μM): -11.9%; inhibition at 100 µM ([2]; 100 μM): 11.8%; IC50 ([3]; Hep3B): 52.2 µM; inhibition at 10 µM ([3]; Hep3B cell strain, compound at 10 μM, CCK-8 method): 27%; inhibition at 100 µM ([3]; Hep3B cell strain, compound at 100 μM, CCK-8 method): 26.2%; maximum tolerance dose [4]: over 5000 mg/kg; inhibition at 10 µM ([5]; 10 μM): 22.3%; inhibition at 100 µM ([5]; 100 μM): 26.4%; IC50 [6]: 19.9 µM; inhibition at 10 µM ([6]; 10 μM): -2.8%; inhibition at 100 µM ([6]; 100 μM): 30.3%; IC50 (HDACs): 4.91 µM; Inhibition percentage (%) towards HDACs (HDACs; 40 μM): 1.9%; Inhibition percentage (%) towards HDACs (HDACs; 200 μM): 7.8%; Inhibition percentage (%) towards HDACs (HDACs; 2 mM): 50.0%; IC50 [7]: 0.231 µM; inhibition at 10 µM ([7]; 10 μM, read-out: Hut-78 (inhibition %)): 10.8%; inhibition at 100 µM ([7]; 100 μM, read-out: Hut-78 (inhibition %)): 94%; half-life ([8]; iv, 2 mg/kg, i.v., read-out: Intravenous half-life (converted)): 1.27 h; bioavailability ([8]; oral): 19%; half-life ([8]; oral, read-out: Oral half-life (converted)): 4.53 h; tumor inhibition %, PC-3 (human prostate cancer) (human PC-3 tumors): 36.97%; deaths, PC-3 model (human PC-3 tumors; 8 mice in each group): no death; IC50 [9]: 12.4 µM; inhibition at 10 µM ([9]; 10 μM): 0.9%; inhibition at 100 µM ([9]; 100 μM): 22.8%; IC50 [10]: 29.9 µM; inhibition at 10 µM ([10]; 10 μM): 24.6%; inhibition at 100 µM ([10]; 100 μM): 42.3%; IC50 [11]: 88.4 µM; inhibition at 10 µM ([11]; Colo320 cell strain, compound at 10 μM, CCK-8 method): 4.4%; inhibition at 100 µM ([11]; Colo320 cell strain, compound at 100 μM, CCK-8 method): 4.2%
